One experiment relates to Vero. The experiment is described as follows: Cytotoxicity in African green monkey Vero cells assessed as reduction in cell viability incubated for 72 hrs by cell-titer-Glo luminescent cell viability assay. Type of experiment: cell-based. Conditions: Chlorocebus sabaeus.
Experiment [1] addresses T1, ATP-dependent Clp protease proteolytic subunit (Staphylococcus aureus (strain NCTC 8325), UniProt Q2G036).
T1 sequence (Q2G036 whole entry): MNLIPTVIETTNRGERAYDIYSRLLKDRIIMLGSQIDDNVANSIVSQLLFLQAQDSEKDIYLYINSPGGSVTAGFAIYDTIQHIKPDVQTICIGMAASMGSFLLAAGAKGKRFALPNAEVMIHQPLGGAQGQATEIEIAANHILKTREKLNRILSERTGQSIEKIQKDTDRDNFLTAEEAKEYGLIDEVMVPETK
Description: Activation of Staphylococcus aureus ClpP using BODIPY-FL-casein as substrate incubated for 30 mins by Enz-Check protease assay.

The test system of the next experiment is Staphylococcus aureus. The experiment is described as follows: Antimicrobial activity against Staphylococcus aureus USA300 deficient in ClpP incubated overnight under aerobic condition by microbroth dilution method. Type of experiment: functional. In general terms: Dilution methods test growth across graded concentrations, often in twofold steps.
A further experiment concerns Bacillus subtilis. Description: Antimicrobial activity against Bacillus subtilis ATCC 23857 incubated overnight under aerobic condition by microbroth dilution method. It counts as functional.
Another experiment concerns Enterococcus faecalis. The experiment is described as follows: Antimicrobial activity against Enterococcus faecalis ATCC 33186 incubated overnight under aerobic condition by microbroth dilution method. Type of experiment: functional.

Each structure is given as a SMILES string. Converted amounts (≈) assume the structure as drawn. Some results are limits rather than exact numbers.

For orientation: IC50 means the concentration needed to halve the response being measured. The term MIC denotes the lowest concentration that inhibits growth of the organism. As for `Cc1ccc(NC(=O)N[C@@H](Cc2cc(F)cc(F)c2)C(=O)N[C@@H]2C(=O)N3C[C@H](O)C[C@H]3C(=O)N(C)[C@@H](C)C(=O)N[C@@H](C)C(=O)N3C[C@@H](C)C[C@H]3C(=O)O[C@H]2C)cc1`, the IC50 in the experiment with Vero is greater than 100 µM. In experiment [1], this compound displayed an EC50 of 0.37 µM. For the same compound, in the experiment on Staphylococcus aureus, the MIC was greater than 200 µM.
Consider `CN(C)[C@@H]1C(O)=C(C(N)=O)C(=O)[C@@]2(O)C(O)=C3C(=O)c4c(O)cccc4[C@@](C)(O)[C@H]3C[C@@H]12` [TETRACYCLINE], for which the MIC in the experiment with Bacillus subtilis was determined as 1.6 µM (≈ 0.711 µg/mL); in the experiment on Enterococcus faecalis it was 0.05 µM (≈ 0.0222 µg/mL).

The record behind these values is ChEMBL document CHEMBL4476873, “Substituted urea depsipeptide analogs as activators of the clpp endopeptidase” (2018).
